Data on two compounds can be found in publication PMC9182199, “Borylated 2,3,4,5-Tetrachlorophthalimide and Their 2,3,4,5-Tetrachlorobenzamide Analogues: Synthesis, Their Glycosidase Inhibition and Anticancer Properties in View to Boron Neutron Capture Therapy” (Molecules, 2022).

In test [1] the test system is A431. The test can be described thus: MTT cell growth inhibition: A431. Type of test: cell-based. The note with it: Homo sapiens, A431 skin carcinoma; for inhibition at 25 µM: A-431, 72 h, MTT, read-out: Percentage (%) Cell Growth Inhibition in response to 25 µM of Drug. As for the experimental part:
(§1) All test agents were prepared as stock solutions (20 mM) in dimethyl sulfoxide (DMSO) and stored at −20 °C. Cell lines used in the study included HT29 (colorectal carcinoma); U87, SJ-G2, (glioblastoma); MCF-7, (breast carcinoma); A2780 (ovarian carcinoma); H460 (lung carcinoma); A431 (skin carcinoma); Du145 (prostate carcinoma); BE2-C (neuroblastoma); MiaPaCa-2 (pancreatic carcinoma); and SMA560 (spontaneous murine astrocytoma), together with the one non-tumour-derived normal breast cell line (MCF10A). All cell lines were incubated in a humidified atmosphere 5% CO2 at 37 °C. The cancer cell lines were maintained in Dulbecco’s modified Eagle’s medium (DMEM; Sigma, Australia) supplemented with foetal bovine serum (10%), sodium pyruvate (10 mM), penicillin (100 IUmL^−1), streptomycin (100 µg mL^−1) and L-glutamine (2 mM).
(§2) Growth inhibition was determined by plating cells in duplicate in medium (100 µL) at a density of 2500–4000 cells per well in 96-well plates. On day 0 (24 h after plating), when the cells were in logarithmic growth, medium (100 µL) with or without the test agent was added to each well. After 72 h drug exposure, growth inhibitory effects were evaluated using the MTT (3-(4,5-dimethyltiazol-2-yl)-2,5-diphenyltetrazolium bromide) assay and absorbance read at 540 nm. The percentage growth inhibition was calculated at a fixed concentration of 25 µM, based on the difference between the optical density values on day 0 and those at the end of drug exposure. Each data point is the mean ± the standard error of the mean (SEM) calculated from three replicates which were performed on separate occasions and separate cell line passages.

The test system of test [2] is bovine kidney N-acetyl-β-glucosaminidase. The experiment in a line: Glycosidase inhibition, laboratory 2: N-acetyl-β-glucosaminidase. The note with it: water. Type of test: biochemical. As for the experimental part: (§3) All enzymes and para-nitrophenyl substrates were purchased from Sigma. Enzymes were assayed at 27 °C in 0.1 M citric acid/0.2 M disodium hydrogen phosphate buffers at the optimum pH for the enzyme. The incubation mixture consisted of 10 μL enzyme solution, 10 μL of 1 mg/mL aqueous solution of extract and 50 μL of the appropriate 5 mM para-nitrophenyl substrate made up in buffer at the optimum pH for the enzyme. The reactions were stopped by addition of 70 μL 0.4 M glycine (pH 10.4) during the exponential phase of the reaction, which had been determined at the beginning using uninhibited assays in which water replaced inhibitor. Final absorbances were read at 405 nm using a Versamax microplate reader (Molecular Devices). Assays were carried out in triplicate, and the values given are means of the three replicates per assay. All reactions run in water.

Test [3] relates to bovine liver β-glucuronidase. The experiment in a line: Glycosidase inhibition, laboratory 2: bovine liver β-glucuronidase. Type of test: biochemical. As to conditions: water. The procedure: as §3
In test [4] the test system is almond β-glucosidase. The test can be described thus: Glycosidase inhibition, laboratory 2: almond β-glucosidase. Type of test: biochemical. As to conditions: water. The procedure: as §3
In test [5] the test system is MCF10A. The experiment in a line: MTT cell growth inhibition: MCF10A normal breast. Type of test: cell-based. As to conditions: Homo sapiens, MCF-10A, 72 h, read-out: Percentage (%) Cell Growth Inhibition in response to 25 µM of Drug. The procedure: as §1
The non-cancer MCF10A cell line was maintained in DMEM:F12 (1:1) cell culture media, 5% heat-inactivated horse serum, supplemented with penicillin (50 IUmL^−1), streptomycin (50 µg mL^−1), HEPES (20 mM), L-glutamine (2 mM), epidermal growth factor (20 ng mL^−1), hydrocortisone (500 ng mL^−1), cholera toxin (100 ng mL^−1) and insulin ([…]).
as §2

The test system of test [6] is bovine liver β-glucuronidase. The experiment in a line: Glycosidase inhibition, laboratory 1: bovine liver β-glucuronidase. Type of test: biochemical. As to conditions: methanol. From the text:
(§4) The enzymes α-glucosidase (from yeast), β-glucosidases (from almond and bovine liver), α-galactosidase (from coffee beans), β-galactosidase (from bovine liver), α-mannosidase (from Jack bean), β-mannosidase (from snail), α-L-rhamnosidase (from Penicillium decumbens), α-L-fucosidase (from bovine kidney), trehalase (from porcine kidney), β-glucuronidases (from E. coli and bovine liver), amyloglucosidase (from A. niger), para-nitrophenyl glycosides, and various disaccharides were purchased from Sigma-Aldrich Co (St Louis, MO, USA).
(§5) Brush border membranes were prepared from the rat small intestine according to the method of Kessler et al. and were assayed at pH 6.8 for rat intestinal maltase using maltose. For rat intestinal maltase, porcine kidney trehalase, and A. niger amyloglucosidase activities, the reaction mixture contained 25 mM maltose and the appropriate amount of enzyme, and the incubations were performed for 10–30 min at 37 °C. The reaction was stopped by heating at 100 °C for 3 min. After centrifugation (600× g; 10 min), the resulting reaction mixture was added to the Glucose CII-test Wako (Wako Pure Chemical Ind., Osaka, Japan). The absorbance at 505 nm was measured to determine the amount of the released D-glucose. Other glycosidase activities were determined using an appropriate para-nitrophenyl glycoside as substrate at the optimum pH of each enzyme. The reaction mixture contained 2 mM of the substrate and the appropriate amount of enzyme. The reaction was stopped by addition of 400 mM Na2CO3. The released para-nitrophenol was measured spectrometrically at 400 nm. All reactions run in methanol.

In test [7] the test system is Bacillus α-glucosidase. The test can be described thus: Glycosidase inhibition, laboratory 2: Bacillus α-glucosidase. The note with it: water. Type of test: biochemical. The procedure: as §3
The target of test [8] is T1, yeast α-glucosidase (Saccharomyces cerevisiae, UniProt P53341).
T1 construct: purchased Sigma
T1 sequence (P53341 whole entry): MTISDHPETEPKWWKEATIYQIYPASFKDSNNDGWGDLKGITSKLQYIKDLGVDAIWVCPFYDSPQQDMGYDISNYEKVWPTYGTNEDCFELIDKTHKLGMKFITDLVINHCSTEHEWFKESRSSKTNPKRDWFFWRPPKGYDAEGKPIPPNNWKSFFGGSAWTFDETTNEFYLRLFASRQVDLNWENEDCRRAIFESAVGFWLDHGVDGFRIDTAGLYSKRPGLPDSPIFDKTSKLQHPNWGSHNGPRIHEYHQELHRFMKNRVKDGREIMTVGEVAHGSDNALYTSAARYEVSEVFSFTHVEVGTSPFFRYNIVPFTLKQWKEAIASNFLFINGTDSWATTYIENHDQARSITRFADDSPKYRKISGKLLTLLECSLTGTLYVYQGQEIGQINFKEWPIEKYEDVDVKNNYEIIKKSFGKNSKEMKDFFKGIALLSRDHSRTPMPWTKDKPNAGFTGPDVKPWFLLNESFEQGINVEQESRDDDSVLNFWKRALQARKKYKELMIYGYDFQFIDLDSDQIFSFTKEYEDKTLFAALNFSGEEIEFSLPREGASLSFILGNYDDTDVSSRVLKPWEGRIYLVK
The experiment in a line: Glycosidase inhibition, laboratory 2: yeast α-glucosidase. The note with it: read-out: % inhibition at ~400 μM, water. It is filed as biochemical. As for the experimental part:
as §3

Test [9] has as its system U87. The test can be described thus: MTT cell growth inhibition: U87. Type of test: cell-based. The note with it: Homo sapiens, U-87 MG, U87 glioblastoma; for inhibition at 25 µM: 72 h, MTT, read-out: Percentage (%) Cell Growth Inhibition in response to 25 µM of Drug. As for the experimental part: as §1, §2
Test [10] concerns MCF-7. The experiment in a line: MTT cell growth inhibition: MCF-7. It is filed as cell-based. The note with it: Homo sapiens, MCF-7 breast carcinoma; for inhibition at 25 µM: MCF7, 72 h, MTT, read-out: Percentage (%) Cell Growth Inhibition in response to 25 µM of Drug. The procedure:
as §1, §2

Test [11] deals with Penicillium decumbens α-L-rhamnosidase. The experiment in a line: Glycosidase inhibition, laboratory 1: α-L-rhamnosidase. Type of test: biochemical. As to conditions: methanol.
Description: as §4, §5

Test [12] has as its system porcine kidney trehalase. The experiment in a line: Glycosidase inhibition, laboratory 1: trehalase. Type of test: biochemical. As to conditions: methanol.
Description: as §4, §5

Test [13] concerns MIA-Pa-Ca2. The test can be described thus: MTT cell growth inhibition: MIA-Pa-Ca2. It is filed as cell-based. As to conditions: Homo sapiens, MIA PaCa-2, MIA-Pa-Ca2 pancreatic carcinoma, 72 h, read-out: Percentage (%) Cell Growth Inhibition in response to 25 µM of Drug. As for the experimental part: as §1, §2
Test [14] relates to BE2-C. The test can be described thus: MTT cell growth inhibition: BE2-C. It is filed as cell-based. The note with it: Homo sapiens, BE(2)-C, BE2-C neuroblastoma, 72 h, read-out: Percentage (%) Cell Growth Inhibition in response to 25 µM of Drug. As for the experimental part:
as §1, §2

Test [15] has as its target bovine liver β-galactosidase. The test can be described thus: Glycosidase inhibition, laboratory 1: bovine liver β-galactosidase. It is filed as biochemical. As to conditions: methanol.
Description: as §4, §5

Test [16] concerns SJ-G2. The experiment in a line: MTT cell growth inhibition: SJ-G2. It is filed as cell-based. The note with it: SJ-G2 glioblastoma, 72 h, read-out: Percentage (%) Cell Growth Inhibition in response to 25 µM of Drug. As for the experimental part: as §1, §2

Molecules are shown by their SMILES. Where only a bound is given, the exact number is not on record here.

On to `CC1(C)OB(c2cccc(NC(=O)c3cc(Cl)c(Cl)c(Cl)c3Cl)c2)OC1(C)C` [meta 5, 2,3,4,5-tetrachloro-N-(3-(4,4,5,5-tetramethyl-1,3,2-dioxaborolan-2-yl)phenyl)benzamide], for which the inhibition at 25 µM in test [1] was 9 ± 9%; in [5] it was below 0%; in [9] it was below 0%; in [10], 16 ± 4%; in test [13] it was 8 ± 5%; in test [14] it was 3 ± 4%. Moreover, the inhibition at 25 µM in test [16] was below 0%. Besides, the “% inhibition at ~400 μM” value in test [2] is given as 30.6%; in test [3], −5.7%; in test [4], 18.7%; in test [7], 54.1%. Further, the figures for the “inhibition % at 100 μM” value in test [6] (100 μM), in test [11] (100 μM) and in [12] (100 μM) were “^aNI ^b (6.0%)”, “^aNI ^b (2.2%)” and “^aNI ^b (0%)”, respectively. In [8], the inhibition at 400 µM worked out at 82.8%. In test [15], this compound yielded an IC50 of 213 µM.
Consider `CC1(C)OB(c2ccccc2NC(=O)c2cc(Cl)c(Cl)c(Cl)c2Cl)OC1(C)C` [ortho 5, 2,3,4,5-Tetrachloro-N-(2-(4,4,5,5-tetramethyl-1,3,2-dioxaborolan-2-yl)phenyl)benzamide], for which the GI50 in test [1] (A-431, read-out: GI50 = Concentration (µM) that inhibits cell growth by 50%, dose response) stood at 11 ± 1.8 µM; in test [9] (read-out: GI50 = Concentration (µM) that inhibits cell growth by 50%, dose response) it was 25 ± 2.6 µM; in test [10] (MCF7, read-out: GI50 = Concentration (µM) that inhibits cell growth by 50%, dose response), 12 ± 1.2 µM. Further, the inhibition at 25 µM in [1] is 100 ± 2%; in test [5], 58 ± 9%; in test [9] it was 58 ± 5%; in test [10] it was above 100%; in test [13], 100 ± 3%; in test [14] it was above 100%. In addition, the inhibition at 25 µM in test [16] was found to be 92 ± 5%. Further, the “% inhibition at ~400 μM” value in test [2] is 28.8%; in test [3] it was −3.5%; in [4], 21%; in [7], 14.4%. Also, the “inhibition % at 10 μM” value in [6] (10 μM) is recorded as “^cNI ^d (0%)”; in test [11] (10 μM) it was “^cNI ^d (0%)”; in test [12] (10 μM), “^cNI ^d (1.2%)”; in test [15] (10 μM), “^cNI ^d (0%)”. Further, the inhibition at 400 µM in [8] worked out at 17.3%.

One may read the inhibition as the drop in the measured response relative to a control, in per cent. Usually % inhibition stands for the change of the read-out against control, counted positive when it falls. Broadly, the IC50 is the concentration that gives 50% inhibition. Read a low IC50 as inhibition by little substance.
